From patent US20160011220A1, “Systems and Methods to Quantify Analytes in Keratinized Samples” (PURDUE PHARMA L.P., priority 2012, published 2016)

How the values were obtained:
[1] = Stability of hair levels among individuals on stable doses of opioids, visit 1 vs visit 2 (excluding PRN dose); type: in vivo, human; conditions: hair level at visit 1 vs hair level at visit 2
Text: The study includes 2 study visits approximately 60 days apart. The second visit allowable range is between 45 and 75 days after the first visit. Patients submit hair and urine samples at both study visits
The enrolled subjects are current, past or new users of prescribed opioid analgesic regimens in either (i) the past 30 days, (ii) the past 31 to 120 days or were not previously prescribed an opioid regimen. All opioid analgesic regimens are self-reported.
E. Assessment of the Stability of Hair Levels Among Individuals on Stable Doses of Opioids (Excluding PRN Dose)
Also shown in Table 1B and the graphs is data from a sub-population of tested subjects, which excluded patients where the start date of the regimen was within the 90 day window of the enrollment date.

[2] = Relationship between prescribed opioid dose and hair levels (excluding PRN dose); type: in vivo, human
[3] = excluding patients whose prescription started less than 90 days before enrollment (n = 361)

| Structure (SMILES) | R (correlation coefficient) ([1]; all interim sample (n = 411)) | R-Squared ([1]; all interim sample (n = 411)) | R (correlation coefficient) [1, 3] | R-Squared [1, 3] | total variation in the hair levels explained by the linear relationship between total daily dose and hair levels (coefficient of determination) [2] |
| --- | --- | --- | --- | --- | --- |
| COc1ccc2c3c1O[C@H]1C(=O)CC[C@H]4[C@@H](C2)N(C)CC[C@]314 [Hydrocodone, hydrocodone] | 0.880 | 0.775 | 0.883 | 0.781 | – |
| CN1CC[C@]23c4c5ccc(O)c4O[C@H]2[C@@H](O)C=C[C@H]3[C@H]1C5 [Morphine, morphine] | 0.789 | 0.623 | 0.974 | 0.949 | – |
| COc1ccc2c3c1O[C@H]1C(=O)CC[C@@]4(O)[C@@H](C2)N(C)CC[C@]314 [Oxycodone, oxycodone] | 0.959 | 0.920 | 0.960 | 0.922 | approximately 55% |
